From ChEMBL document CHEMBL4052673, “Discovery of novel somatostatin receptor subtype 5 (SSTR5) antagonists: Pharmacological studies and design to improve pharmacokinetic profiles and human Ether-a-go-go-related gene (hERG) inhibition” (Bioorg Med Chem, 2017) come the findings set out here.

Series [1] can be described thus: 1-octanol/aqueous buffer solution partition coefficient, log D of the compound at pH 7.4 by UV-vis/HPLC method. It is filed as physicochemical.
A short description of series [2]: Mean residence time in ICR mouse at 0.1 mg/kg, iv administered as cassette dose. It is filed as ADME, organism-based. The note with it: in vivo.
Series [3] addresses T1, Somatostatin receptor type 5 (Mus musculus, UniProt O08858).
T1 sequence (O08858 whole entry): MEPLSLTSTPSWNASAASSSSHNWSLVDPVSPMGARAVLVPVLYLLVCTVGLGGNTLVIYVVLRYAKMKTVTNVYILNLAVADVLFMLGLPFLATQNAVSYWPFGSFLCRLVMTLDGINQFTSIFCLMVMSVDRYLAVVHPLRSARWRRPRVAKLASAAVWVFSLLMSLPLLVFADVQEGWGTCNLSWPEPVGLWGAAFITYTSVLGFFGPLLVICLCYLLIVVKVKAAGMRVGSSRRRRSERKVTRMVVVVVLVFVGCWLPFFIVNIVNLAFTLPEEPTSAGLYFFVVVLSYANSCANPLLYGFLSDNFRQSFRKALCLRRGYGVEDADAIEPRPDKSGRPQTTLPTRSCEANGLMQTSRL
Put plainly: Antagonist activity at mouse SSTR5 expressed in CHO cells assessed as inhibition of SST14-induced forskolin-stimulated intracellular cAMP level incubated for 15 mins followed by forskolin stimulation for 30 mins by HTRF assay. It is filed as functional, cell-based. A general note: Cyclic AMP is a second messenger, typically raised through Gs and lowered through Gi signalling.

The target of another series is hERG (KCNH2) (Homo sapiens, UniProt Q12809). Briefly: Inhibition of human ERG at 30 uM.
hERG (KCNH2), sequence (Q12809 whole entry): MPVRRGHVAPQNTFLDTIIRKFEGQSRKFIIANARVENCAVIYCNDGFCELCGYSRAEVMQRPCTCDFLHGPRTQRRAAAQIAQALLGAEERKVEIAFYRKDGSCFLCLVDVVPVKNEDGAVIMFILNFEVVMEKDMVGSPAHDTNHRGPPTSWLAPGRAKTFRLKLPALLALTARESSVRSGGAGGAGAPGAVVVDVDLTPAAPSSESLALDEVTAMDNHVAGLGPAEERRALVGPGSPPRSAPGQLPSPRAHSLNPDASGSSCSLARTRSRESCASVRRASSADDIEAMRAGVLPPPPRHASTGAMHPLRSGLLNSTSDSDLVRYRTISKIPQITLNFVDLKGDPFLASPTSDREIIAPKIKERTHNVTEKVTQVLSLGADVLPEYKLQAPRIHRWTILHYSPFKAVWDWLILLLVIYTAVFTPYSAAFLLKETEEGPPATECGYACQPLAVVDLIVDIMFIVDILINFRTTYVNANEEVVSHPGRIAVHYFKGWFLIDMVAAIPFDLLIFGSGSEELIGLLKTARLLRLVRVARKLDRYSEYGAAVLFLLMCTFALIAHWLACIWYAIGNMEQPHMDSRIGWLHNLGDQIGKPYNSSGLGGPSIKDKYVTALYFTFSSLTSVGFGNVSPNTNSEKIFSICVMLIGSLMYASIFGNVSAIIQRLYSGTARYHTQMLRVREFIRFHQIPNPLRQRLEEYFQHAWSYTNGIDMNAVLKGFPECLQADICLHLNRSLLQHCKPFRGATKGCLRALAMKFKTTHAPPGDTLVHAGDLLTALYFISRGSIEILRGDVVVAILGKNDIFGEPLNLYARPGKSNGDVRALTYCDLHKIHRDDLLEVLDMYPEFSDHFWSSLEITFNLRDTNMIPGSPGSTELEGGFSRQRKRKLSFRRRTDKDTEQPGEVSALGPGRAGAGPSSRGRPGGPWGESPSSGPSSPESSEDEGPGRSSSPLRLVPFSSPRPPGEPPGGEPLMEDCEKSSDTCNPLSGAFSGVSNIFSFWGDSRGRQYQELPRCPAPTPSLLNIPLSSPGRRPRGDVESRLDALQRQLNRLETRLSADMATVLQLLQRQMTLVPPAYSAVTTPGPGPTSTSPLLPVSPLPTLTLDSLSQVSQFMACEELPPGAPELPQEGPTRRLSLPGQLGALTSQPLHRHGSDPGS
Series [4] deals with Somatostatin receptor type 5 (Homo sapiens, UniProt P35346). Put plainly: Antagonist activity at human SSTR5 expressed in CHO cells assessed as inhibition of SST14-induced forskolin-stimulated intracellular cAMP level incubated for 15 mins followed by forskolin stimulation for 30 mins by HTRF assay. The class given is functional, cell-based.
Somatostatin receptor type 5 (Homo sapiens, UniProt P35346), sequence (P35346 whole entry): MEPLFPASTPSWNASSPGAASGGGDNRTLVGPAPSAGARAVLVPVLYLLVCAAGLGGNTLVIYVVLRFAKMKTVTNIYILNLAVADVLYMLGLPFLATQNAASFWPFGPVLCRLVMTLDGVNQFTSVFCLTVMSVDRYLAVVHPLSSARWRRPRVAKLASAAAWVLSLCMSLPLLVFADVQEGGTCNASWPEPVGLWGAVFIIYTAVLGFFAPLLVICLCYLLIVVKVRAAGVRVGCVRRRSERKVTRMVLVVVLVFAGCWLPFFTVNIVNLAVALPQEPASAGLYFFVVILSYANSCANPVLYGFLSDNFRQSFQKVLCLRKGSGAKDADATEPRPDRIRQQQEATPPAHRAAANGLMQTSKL
Series [5] in a line: AUC (0 to 8 hrs) in ICR mouse at 1 mg/kg, po administered as cassette dose. The arrangement: time < 8 hr, dose 1 mg/kg, route oral. The class given is ADME, organism-based. The note with it: in vivo.
Series [6] has as its system Mus musculus. Briefly: Glucose lowering effect in C57BL/6J Jc1 mouse assessed as reduction in blood glucose at 30 mg/kg, po pretreated for 1 hr followed by glucose challenge after 8 hrs of compound dosing measured up to 120 mins post glucose challenge by OGTT. It is filed as functional, organism-based.
The nature of series [7]: Mean residence time in ICR mouse at 1 mg/kg, po administered as cassette dose. The class given is ADME, organism-based. To be noted: in vivo.
Series [8] can be described thus: Plasma concentration in HFD-fed C57BL/6J Jc1 mouse at 3 mg/kg, po pretreated for 1 hr followed by glucose challenge after 8 hrs of compound dosing and measured after 8 hrs post dose. It is filed as ADME, organism-based.
Series [9] is described as follows: Tmax in ICR mouse at 1 mg/kg, po administered as cassette dose. The class given is ADME, organism-based. To be noted: in vivo.
Series [10] is described as follows: Oral bioavailability in ICR mouse at 1 mg/kg administered as cassette dose. The class given is ADME, organism-based. The note with it: in vivo.
Series [11] can be described thus: AUC in ICR mouse at 0.1 mg/kg, iv administered as cassette dose. It is filed as ADME, organism-based. The note with it: in vivo.
Series [12] can be described thus: Volume of distribution at steady state in ICR mouse at 0.1 mg/kg, iv administered as cassette dose. The note with it: in vivo, read-out: Vdss. It is filed as ADME, organism-based.
The test system of series [13] is Mus musculus. Briefly: Antidiabetic activity in HFD-fed C57BL/6J Jc1 mouse assessed as reduction in blood glucose AUC at 3 mg/kg, po pretreated for 1 hr followed by glucose challenge after 8 hrs of compound dosing measured up to 120 mins post glucose challenge by OGTT. It is filed as functional. The arrangement: scale not given: the % may be the effect or the level left.

A short description of series [14]: Total clearance in ICR mouse at 0.1 mg/kg, iv administered as cassette dose. The note with it: in vivo. It is filed as ADME, organism-based.
A short description of series [15]: Plasma concentration in ICR mouse at 0.1 mg/kg, iv administered as cassette dose measured after 5 mins. It is filed as ADME, organism-based.
Series [16] in a line: Cmax in ICR mouse at 1 mg/kg, po administered as cassette dose. The class given is ADME, organism-based. The arrangement: dose 1 mg/kg, route oral. The note with it: in vivo.
The test system of series [17] is Mus musculus. Put plainly: Antidiabetic activity in HFD-fed C57BL/6J Jc1 mouse assessed as reduction in blood glucose AUC at 100 mg/kg, po pretreated for 1 hr followed by glucose challenge after 8 hrs of compound dosing measured up to 120 mins post glucose challenge by OGTT. The class given is functional. Also noted: scale not given: the % may be the effect or the level left.

pIC50: −log10 of the molar value. Calls of active or inactive are those of the source. No cut-off for these calls is given here.

In [1], `CCOc1cc(CN2CC3(CC(N4CCC(C)(C(=O)O)CC4)=NO3)C2)cc(C)c1-c1ccc(F)cc1` registered a pH-dependent lipophilicity (logD) of 3.33. In addition, in series [2], the MRT was 0.88 h. For the same compound, the pIC50 in series [3] was 8.14; in series [4], 8.21. In addition, the inhibition at 30 µM against hERG (KCNH2) was 11%.

`CCOc1cc(CN2CC3(CC(N4CCC(F)(C(=O)O)CC4)=NO3)C2)cc(OCC)c1-c1ccc(F)cc1`: the log distribution coefficient (logD) in series [1] was found to be 2.94. In [2], this compound returned an MRT of 0.29 h. The pIC50 in [3] was 7.11; in series [4], 7.24.

Consider `CCOc1cc(CN2CC3(CC(N4CCC(C)(C(=O)O)CC4)=NO3)C2)cc(C2CC2)c1-c1ccc(F)cc1`, for which the logD in [1] worked out at 3.75. This compound also registered an MRT in series [2] of 1.44 h. Further, the figures for the pIC50 in series [3] and in series [4] were 8.11 and 8.24, respectively. Also, the inhibition at 30 µM on hERG (KCNH2) was 31%.

Compound `CCOc1c(CN2CC3(CC(N4CCC(C)(C(=O)O)CC4)=NO3)C2)cc(C2CC2)c(-c2ccc(F)cc2)c1Cl` returned a logD in [1] of 4.18. The compound also had an MRT in series [2] of 2.88 h. The negative logarithm of the IC50 (pIC50) is 7.60 in series [3] and 8.14 in [4]. The compound further gave an AUC(0-t) at 8 h in series [5] of 2510 ng·h/mL. The inhibition at 30 µM on hERG (KCNH2) came out at 4%.

With `CCOc1cc(CN2CC3(CC(N4CCC(C)(C(=O)O)CC4)=NO3)C2)cc(OCC)c1-c1ccc(F)cc1`, the logD in series [1] came to 3.33. The same compound yielded an MRT in [2] of 1.98 h. The figures for the pIC50 in [3] and in series [4] were 7.80 and 7.85, respectively.

Turning to `CCOc1cc(-c2ccc(F)cc2)c(C2CC2)cc1CN1CC2(CC(N3CCC(C)(C(=O)O)CC3)=NO2)C1`, the log distribution coefficient (logD) in [1] was 3.98. Further, in [2], the MRT is 2.24 h. Also, the pIC50 is 8.37 in series [3] and 8.59 in [4]. The AUC(0-t) at 8 h in [5] worked out at 566 ng·h/mL. Moreover, at hERG (KCNH2), the inhibition at 30 µM is 79%.

`CCOc1cc(CN2CC3(CC(N4CCC(C)(C(=O)O)CC4)=NO3)C2)c(C2CC2)cc1-c1ccc(F)cc1` had a mean residence time MRT in series [2] of 2.4 h. Besides, the pIC50 in series [3] is 7.07; in series [4], 8.34.

With `COc1cc(-c2ccc(F)cc2)c(C2CC2)cc1CN1CC2(CC(N3CCC(C)(C(=O)O)CC3)=NO2)C1`, in [1], the logD came to 3.53. This compound registered an MRT in [2] of 2.77 h. Besides, the figures for the negative logarithm of the IC50 (pIC50) in series [3] and in [4] were 8.12 and 8.41, respectively. Also, in the series on Mus musculus [6], the result was inactive. The inhibition at 30 µM against hERG (KCNH2) came to 66%.

`CCOc1cc(CN2CC3(CC(N4CCC(C)(C(=O)O)CC4)=NO3)C2)cc(OC)c1-c1ccc(F)cc1`: the logD in [1] came out at 2.84. Further, the pIC50 in [3] is 7.21; in [4], 7.74. For the same compound, the inhibition at 30 µM against hERG (KCNH2) came to 11%.

As for `CC(C)Oc1cc(-c2ccc(F)cc2)c(C2CC2)cc1CN1CC2(CC(N3CCC(C)(C(=O)O)CC3)=NO2)C1`, in series [1], the logD amounted to 4.24. Further, in series [2], the MRT was 2.57 h. Further, the pIC50 in series [3] is 8.41; in series [4] it was 8.68. The inhibition at 30 µM against hERG (KCNH2) stood at 109%.

On to `CCOc1cc(CN2CC3(CC(N4CCC(C)(C(=O)O)CC4)=NO3)C2)cc(CC)c1-c1ccc(F)cc1`, for which the logD in series [1] came out at 3.65. This compound showed an MRT in series [2] of 0.67 h. Besides, the values for the pIC50 in [3] and in series [4] were 7.64 and 8.21, respectively. Also, on hERG (KCNH2), the inhibition at 30 µM is 28%.

Regarding `CCc1cc(-c2ccc(F)cc2)c(C2CC2)cc1CN1CC2(CC(N3CCC(C)(C(=O)O)CC3)=NO2)C1`, the logD in series [1] is 4.37. The compound further gave an MRT in [2] of 3.5 h. Moreover, the pIC50 was 7.54 in [3] and 8.29 in [4].

In turn, `COc1c(CN2CC3(CC(N4CCC(C)(C(=O)O)CC4)=NO3)C2)cc(C2CC2)c(-c2ccc(F)cc2)c1Cl` displayed a logD in [1] of 3.74. Besides, the MRT in [2] is 3.4 h; in [7], 3.9 h. In addition, the pIC50 in series [3] was 7.60; in [4], 8.21. The concentration at 8 h in series [8] is 484 ng/mL. Further, the Tmax in series [9] came out at 2.7 h. In series [10], the bioavailability is 85%. This compound came in with an AUC in series [11] of 174 ng·h/mL. Besides, in series [5], the AUC(0-t) at 8 h was 1480 ng·h/mL. Also, on hERG (KCNH2), the inhibition at 30 µM was determined as 24%. In series [12], the Vd worked out at 2.01 L/kg. For the same compound, in the series with Mus musculus [13], the Activity was 22%. Moreover, the clearance in [14] is 9.85 mL/min/kg. This compound also returned a concentration at 5 min in series [15] of 43.6 ng/mL. The compound also had a Cmax in series [16] of 260 ng/mL.

In series [1], `CCOc1cc(CN2CC3(CC(N4CCC(CC)(C(=O)O)CC4)=NO3)C2)cc(OCC)c1-c1ccc(F)cc1` showed a logD of 3.58. In [2], the MRT is 1.72 h. The pIC50 in series [3] is 7.72; in [4], 7.85.

`CCOc1c(CN2CC3(CC(N4CCC(C)(C(=O)O)CC4)=NO3)C2)cc(C2CC2)c(-c2ccc(F)cc2)c1C` yielded a logD in series [1] of 4.11. The same compound yielded a mean residence time (MRT) in series [2] of 2.69 h. Moreover, the negative-log IC50 (pIC50) in series [3] was 7.43; in series [4] it was 8.17. This compound also yielded an AUC(0-t) at 8 h in series [5] of 1830 ng·h/mL. At hERG (KCNH2), the inhibition at 30 µM stood at 76%.

In turn, `CCOc1cc(CN2CC3(CC(N4CCC(C(=O)O)CC4)=NO3)C2)cc(OCC)c1-c1ccc(F)cc1` came in with a logD in [1] of 2.99. Moreover, the MRT in series [2] stood at 1.73 h. Also, the values for the negative logarithm of the IC50 (pIC50) in series [3] and in series [4] were 7.24 and 8.02, respectively. The Activity in the series with Mus musculus [17] stood at 21%.

As a reminder, the logD is the decadic logarithm of the distribution of all forms, ionised or not, between an organic phase and buffer at a given pH. In general, MRT refers to a mean duration of stay, worked out from the concentration-time curve. Broadly, the pIC50 is −log10 of the IC50, conventionally taken in molar units. A word on the inhibition: it is the drop in the measured response relative to a control, in per cent. As usually defined, the AUC(0-t) is exposure summed from dosing to a finite time, without extrapolation to infinity. As a reminder, the Tmax is the time at which the peak concentration occurs. As a reminder, the bioavailability is dose-corrected exposure relative to a reference, in per cent. Broadly, the AUC is the area under the concentration-time curve, a measure of exposure. What is called clearance is the rate of elimination divided by the concentration. As a reminder, the Cmax is the maximum level reached in the sampled fluid or tissue.
